Drawing on ChEMBL document CHEMBL3045868, “Synthesis and antibacterial activities of para-alkoxy phenyl--ketoaldehyde derivatives” (Med Chem Res, 2013), this text covers MIC for one molecule.

In experiment [1] the test system is Staphylococcus aureus. The experiment can be described thus: Antibacterial activity against Staphylococcus aureus clinical isolate 1 assessed as growth inhibition at pH 7 after 16 to 18 hr by NCCLS agar dilution method. The experiment is classed as functional. A general note: In agar dilution, organisms are placed on agar that contains the substance at set levels.

The subject of experiment [2] is Staphylococcus aureus. The experiment can be described thus: Antibacterial activity against Staphylococcus aureus clinical isolate 14 assessed as growth inhibition at pH 7 after 16 to 18 hr by NCCLS agar dilution method. The experiment is classed as functional.

SMILES strings stand for the structures. Values after ≈ are worked out from the molar mass of the structure shown.

For orientation: MIC means the lowest concentration found to suppress growth. Take `CO/N=C/CC(=O)c1ccc(OC)cc1`: the MIC is 32 µg/mL (≈ 154 µM) with Staphylococcus aureus [1] and 16 µg/mL (≈ 77.2 µM) in the experiment on Staphylococcus aureus [2].
